From ChEMBL document CHEMBL1130192, “Synthesis and antiviral activity of C2 analogs of enviroxime: an exploration of the role of critical functionality” (J Med Chem, 1997)
Converted amounts (≈) assume the structure as drawn.

Columns and labels:
HeLa [1] = test: Antiviral activity against Rhinovirus (RV-14) in HeLa cells using CPE/XTT assay; assay type: functional, cell-based; conditions: Homo sapiens
HeLa [2] = test: Antiviral activity against Coxsackievirus (CoxA21) in HeLa cells using CPE/XTT assay; assay type: functional, cell-based; conditions: Homo sapiens
HeLa [3] = test: Antiviral activity against Rhinovirus (RV-16) in HeLa cells using CPE/XTT assay; assay type: functional, cell-based; conditions: Homo sapiens
HeLa [4] = test: Antiviral activity against Rhinovirus (RV-2) in HeLa cells using CPE/XTT assay; assay type: functional, cell-based; conditions: Homo sapiens
HeLa [5] = test: Antiviral activity against Poliovirus (PV-1) in HeLa cells using CPE/XTT assay; assay type: functional, cell-based; conditions: Homo sapiens
HeLa [6] = test: Antiviral activity against Rhinovirus (RV-2) in HeLa cells using CPE/XTT assay in HeLa cells using CPE/XTT assay; assay type: functional, cell-based; conditions: Homo sapiens
BSC-1 [7] = test: Antiviral activity against Poliovirus (PV-1) using plaque reduction assay in BSC1 cells; assay type: functional, cell-based, Cercopithecidae; conditions: Chlorocebus aethiops
BSC-1 [8] = test: Antiviral activity against Poliovirus (PV-1) using plaque reduction assay using BSC1 cells; assay type: functional, cell-based, Cercopithecidae; conditions: Chlorocebus aethiops
HeLa [9] = test: Antiviral activity against Coxsackie virus (CoxA21) in HeLa cells using CPE/XTT assay; assay type: functional, cell-based; conditions: Homo sapiens

Row | Structure (SMILES) | IC50 (HeLa [1]) | IC50 (HeLa [2]) | IC50 (HeLa [3]) | IC50 (HeLa [4]) | IC50 (HeLa [5]) | IC50 (HeLa [6]) | IC50 (BSC-1 [7]) | IC50 (BSC-1 [8]) | IC50 (HeLa [9])
1 | Cc1nc2ccc(/C(=N/O)c3ccccc3)cc2n1S(=O)(=O)C(C)C | 0.34 µg/mL (≈ 0.951 µM) | 0.05 µg/mL (≈ 0.14 µM) | 0.18 µg/mL (≈ 0.504 µM) | 0.24 µg/mL (≈ 0.671 µM) | 0.23 µg/mL (≈ 0.643 µM) |  |  |  | 
2 | CC(C)S(=O)(=O)n1c(N(C)C)nc2ccc(/C(=N/O)c3ccccc3)cc21 | 49 µg/mL (≈ 127 µM) | 2.19 µg/mL (≈ 5.67 µM) | 0.64 µg/mL (≈ 1.66 µM) | 30.3 µg/mL (≈ 78.4 µM) | 4.55 µg/mL (≈ 11.8 µM) |  |  |  | 
3 | CC(C)S(=O)(=O)n1cnc2ccc(/C(=N/O)c3ccccc3)cc21 | 0.53 µg/mL (≈ 1.54 µM) | 0.12 µg/mL (≈ 0.349 µM) | 0.16 µg/mL (≈ 0.466 µM) |  | 0.57 µg/mL (≈ 1.66 µM) | 0.19 µg/mL (≈ 0.553 µM) |  |  | 
4 | COc1nc2ccc(/C(=N/O)c3ccccc3)cc2n1S(=O)(=O)C(C)C | 0.48 µg/mL (≈ 1.29 µM) | 0.17 µg/mL (≈ 0.455 µM) | 0.18 µg/mL (≈ 0.482 µM) | 0.54 µg/mL (≈ 1.45 µM) | 0.57 µg/mL (≈ 1.53 µM) |  |  |  | 
5 | CSc1nc2ccc(/C(=N/O)c3ccccc3)cc2n1S(=O)(=O)C(C)C | 0.76 µg/mL (≈ 1.95 µM) | 0.18 µg/mL (≈ 0.462 µM) | 0.18 µg/mL (≈ 0.462 µM) | 0.69 µg/mL (≈ 1.77 µM) | 0.59 µg/mL (≈ 1.51 µM) |  |  |  | 
6 | CC(C)n1c(N)nc2ccc(/C(=N/O)c3ccccc3)cc21 |  |  |  |  |  |  | 0.09 µg/mL (≈ 0.306 µM) |  | 
7 | CNc1nc2ccc(/C(=N/O)c3ccccc3)cc2n1S(=O)(=O)C(C)C | 24.4 µg/mL (≈ 65.5 µM) | 7.11 µg/mL (≈ 19.1 µM) | 1.49 µg/mL (≈ 4 µM) | 54.8 µg/mL (≈ 147 µM) | 6.16 µg/mL (≈ 16.5 µM) |  |  |  | 
8 | CC(C)S(=O)(=O)n1c(N)nc2ccc(/C(=N/O)c3ccccc3)cc21 [ENVIROXIME] | 0.04 µg/mL (≈ 0.112 µM) |  | 0.04 µg/mL (≈ 0.112 µM) | 0.07 µg/mL (≈ 0.195 µM) | 0.06 µg/mL (≈ 0.167 µM) |  |  | 0.02 µg/mL (≈ 0.0558 µM) | 0.05 µg/mL (≈ 0.139 µM)
